{"source": "patent US20090215884A1", "about": "“METHOD FOR WOUND HEALING” (priority 2005, published 2009)", "key": {"keratinocytes": {"tested_on": "keratinocytes", "assay": "Cytokine production by PEP005-treated human keratinocytes", "format": "cell-based", "conditions": "6 h, supernatant", "protocol": "(§1) Cytokine production by PEP005-treated human cells Confluent cultures of Me10538 cells, keratinocytes, fibroblasts and neutrophils were incubated for 6 h in the absence or presence of PEP005 (1-100 ng/ml). The supernatants were harvested and analyzed for the presence of the following cytokines; TNF-α, IL-6 and IL-8 using a multiplex detection kit (Biosource International, Nivelles, Belgium). Units of detected proteins are pg/ml."}, "fibroblasts": {"tested_on": "fibroblasts", "assay": "Cytokine production by PEP005-treated human fibroblasts", "format": "cell-based", "conditions": "6 h, supernatant", "protocol": "as §1"}, "neutrophils": {"tested_on": "neutrophils", "assay": "Cytokine production by PEP005-treated human neutrophils", "format": "cell-based", "conditions": "6 h, supernatant", "protocol": "as §1"}, "dermal fibroblasts": {"tested_on": "dermal fibroblasts", "assay": "MTT cell viability and proliferation, dermal fibroblasts", "format": "cell-based, human", "description": "A normal adult skin biopsy (6 mm) was obtained (n=1), with informed consent, from an individual attending the Oral Surgery Clinic, School of Dentistry, Wales College of Medicine, Cardiff. Following the application of a local anaesthetic, the dermal biopsy was collected and adult dermal fibroblast cultures established by single cell suspension technique, following enzymic degradation of the specimen. This technique has previously been reliably used to establish viable primary cultures of both oral and dermal fibroblasts in vitro (Cook et al, 2000; Stephens et al, 2001; 2003). Dermal fibroblasts were cultured in Fibroblast-Serum Containing Medium, containing Dulbecco's Modified Eagle's Medium (DMEM), supplemented with L-glutamine (2 mM), antibiotics (100 U/ml penicillin G sodium, […] streptomycin sulphate and 0.25 μg/ml amphotericin B) and 10% fetal calf serum (all purchased from Invitrogen Ltd., Paisley, U.K.). Dermal fibroblast cultures were maintained at 37° C., in a 5% CO2/95% air atmosphere, with the culture medium being changed every 2-3 days. Dermal fibroblasts were used between passage 7-17, for all experiments.\nPrior to use, the PEP005/DMSO stock solution was removed from 4° C. storage and warmed to room temperature. The required volumes of PEP005/DMSO were aliquoted into a poly-propylene vessel and the PEP005/DMSO diluted to the required concentration (typically 0.01 μg/ml, 0.1 μg/ml, 1 μg/ml, 10 μg/ml and […]) in Fibroblast-Serum Containing Medium (for dermal fibroblast cultures) or serum-free, EpiLife® Medium (for epidermal keratinocyte cultures), with fresh PEP005/culture medium solutions being prepared daily, at the various concentrations above, due to solution stability. Prior to discarding PEP005/culture medium solutions, at least two volumes of 0.1% sodium hydroxide (Sigma Chemical Co.), in 95% ethanol/5% methanol (both from Fisher Scientific, Leicestershire, U.K.), was added to each solution, to decontaminate.\nThe MTT [3-(4,5-dimethyl-2-thiazolyl)-2,5-diphenyltetrazolium bromide] dye-reduction assay was employed for the assessment of dermal fibroblast and epidermal keratinocyte cell viability and proliferation, according to Cook et al (2000). Following trypzinisation, dermal fibroblast or epidermal keratinocyte were seeded in 96-well microtitre plates (VWR International Ltd., Leicestershire, U.K.), at a cell density of 2.5×10^3 cell/well and 5×10^3 cell/well, respectively. Following cell seeding for 24 h and 48 h, respectively, the dermal fibroblast and epidermal keratinocyte culture medium were replaced with culture medium (100 μl/well), containing 0, 0.01 μg/ml, 0.1 μg/ml, 1 μg/ml, 10 μg/ml or 100 μg/ml PEP005 (six culture wells per PEP005 concentration). […]"}, "epidermal keratinocytes": {"tested_on": "epidermal keratinocytes", "assay": "MTT cell viability and proliferation, epidermal keratinocytes", "format": "cell-based, human", "conditions": "100 μg/ml PEP005", "protocol": "Human, adult, epidermal keratinocytes, were purchased cryopreserved from Cascade Biologics Inc., Nottinghamshire, U.K. These cells (>500,000 viable cells/vial) were tested to be >70% viable, with the capacity to proliferate for at least 16 population doublings. The epidermal keratinocytes were cultured in serum-free, EpiLife® Medium (Cascade Biologics Inc.), supplemented with antibiotics (100 U/ml penicillin G sodium, […] streptomycin sulphate and 0.25 μg/ml amphotericin B) and EpiLife® Defined Growth Supplement (EDGS, consisting of purified bovine serum albumin, purified bovine transferring, hydrocortisone, recombinant human insulin-like growth factor type-1, prostaglandin E2 and recombinant human epidermal growth factor, Cascade Biologics Inc.). Epidermal keratinocytes cultures were maintained at 37° C., in a 5% CO2/95% air atmosphere, with the culture medium being changed every 2-3 days. Epidermal keratinocytes were used between 4-6 passages, for all experiments.\nPrior to use, the PEP005/DMSO stock solution was removed from 4° C. storage and warmed to room temperature. […]"}}, "data": [{"smiles": "C/C=C(/C)C(=O)O[C@H]1C(C)=C[C@]23C(=O)[C@@H](C=C(CO)[C@@H](O)[C@]12O)[C@H]1[C@@H](C[C@H]3C)C1(C)C", "note": "[PEP005, ingenol-3-angelate]", "values": [{"measurement": "IL-8", "setting": "keratinocytes; PEP005 1 ng/ml", "result": "3910 ± 148", "unit": "pg/mL"}, {"measurement": "TNFα", "setting": "keratinocytes; PEP005 1 ng/ml", "result": "510 ± 26", "unit": "pg/mL"}, {"measurement": "IL-8", "setting": "keratinocytes; PEP005 5 ng/ml", "result": "4775 ± 178", "unit": "pg/mL"}, {"measurement": "TNFα", "setting": "keratinocytes; PEP005 5 ng/ml", "result": "847 ± 37", "unit": "pg/mL"}, {"measurement": "IL-8", "setting": "keratinocytes; PEP005 10 ng/ml", "result": "3895 ± 198", "unit": "pg/mL"}, {"measurement": "TNFα", "setting": "keratinocytes; PEP005 10 ng/ml", "result": "498 ± 29", "unit": "pg/mL"}, {"measurement": "IL-8", "setting": "keratinocytes; PEP005 100 ng/ml", "result": "2950 ± 108", "unit": "pg/mL"}, {"measurement": "TNFα", "setting": "keratinocytes; PEP005 100 ng/ml", "result": "335 ± 21", "unit": "pg/mL"}, {"measurement": "IL-6", "setting": "fibroblasts; PEP005 1 ng/ml", "result": "81 ± 4", "unit": "pg/mL"}, {"measurement": "IL-8", "setting": "fibroblasts; PEP005 1 ng/ml", "result": "79 ± 3", "unit": "pg/mL"}, {"measurement": "IL-6", "setting": "fibroblasts; PEP005 5 ng/ml", "result": "85 ± 4", "unit": "pg/mL"}, {"measurement": "IL-8", "setting": "fibroblasts; PEP005 5 ng/ml", "result": "160 ± 14", "unit": "pg/mL"}, {"measurement": "IL-6", "setting": "fibroblasts; PEP005 10 ng/ml", "result": "141 ± 6", "unit": "pg/mL"}, {"measurement": "IL-8", "setting": "fibroblasts; PEP005 10 ng/ml", "result": "215 ± 12", "unit": "pg/mL"}, {"measurement": "IL-6", "setting": "fibroblasts; PEP005 100 ng/ml", "result": "205 ± 5", "unit": "pg/mL"}, {"measurement": "IL-8", "setting": "fibroblasts; PEP005 100 ng/ml", "result": "239 ± 9", "unit": "pg/mL"}, {"measurement": "IL-8", "setting": "neutrophils; PEP005 1 ng/ml", "result": "7089 ± 1293", "unit": "pg/mL"}, {"measurement": "IL-8", "setting": "neutrophils; PEP005 10 ng/ml", "result": "2241 ± 684", "unit": "pg/mL"}, {"measurement": "IL-8", "setting": "neutrophils; PEP005 100 ng/ml", "result": "617 ± 52", "unit": "pg/mL"}, {"measurement": "dermal fibroblast cell viability/proliferation (MTT)", "setting": "dermal fibroblasts; 0.01 μg/ml PEP005, day 7", "result": "appeared to stimulate cell viability/proliferation"}, {"measurement": "dermal fibroblast cell viability/proliferation (MTT)", "setting": "dermal fibroblasts; 0.1 μg/ml PEP005, day 7", "result": "appeared to stimulate cell viability/proliferation"}, {"measurement": "dermal fibroblast cell viability/proliferation (MTT)", "setting": "dermal fibroblasts; 10 μg/ml PEP005, days 1, 3 and 5", "result": "stimulatory effect"}, {"measurement": "dermal fibroblast cell viability/proliferation (MTT)", "setting": "dermal fibroblasts; 100 μg/ml PEP005, compared to untreated fibroblast controls", "result": "cytotoxic effect"}, {"measurement": "keratinocyte cell viability/proliferation (MTT)", "setting": "epidermal keratinocytes", "result": "cytotoxic effect"}]}]}
